Values quoted from earlier work in patent publication US5585492A, “LTA4 Hydrolase inhibitors” (priority 1994, dated 1996).

Test system: LTA4 hydrolase
Settings: cited from earlier work

In the case of `CC(C)C[C@H](NC(=O)[C@@H](O)[C@H](N)Cc1ccccc1)C(=O)O` [bestatin], the “LTA4 hydrolase inhibitory activity (in words)” value is given as “exhibit LTA4 hydrolase inhibitory activity”.
